Laboratory results as given in patent US20090069319A1, “IMIDAZOPYRIDINE ANALOGS AND THEIR USE AS AGONISTS OF THE WNT-BETA-CATENIN CELLULAR MESSAGING SYSTEM” (Wyeth, priority 2007, published 2009).

Experiment: Functional Dkk1-LRP5-TCF-Luciferase Assay in U2OS Cells (table columns: A=MAX FOLD Induction/DMSO CONTROL; B=fold induction @ 2.0 uM; C=fold induction @ 20.0 uM)
Assay type: cell-based, Human
Details: Homo sapiens, U2OS; for fold induction at 2 µM: 2.0 uM compound; for fold induction at 20 µM: 20.0 uM compound
Description: Biological Evaluation—Functional Dkk1-LRP5-TCF-Luciferase Assay in U2OS Cells
U2OS Human Bone derived cells (Osteosarcoma) are grown in McCoy's 5A Medium (Modified), with L-glutamine (GIBCO Cat No. 16600-082)+1% Pen-Strep+5% FBS) plated at 1×10^7 cells/T175 cm flask. The next day, the cells are co-transfected overnight with the following plasmids: (a) Test reporter (16×TCF-TK-FireFly-Luci), (b) Internal Control Reporter (TK-Renilla-Luci), (c) Wnt3a and (d) Dkk1. GIBCO's Lipofectamine 2000 and OptiMEM were used for the transfection. After a minimum of 4 hr of transfection at 37° C., the plasmid-transfected cells are trypsinized, counted, and suspended in freezing medium (95% FBS+5% DMSO). The reporter cells are frozen at 1×10^7/ml concentrations, aliquoted into 0.5 ml or 2.5 ml/tube and stored at −70° C.
The following day, test compounds are added under HTS setup by Plate Track into 384 well plates (white, TC treated, Falcon plate) such that the final concentration of the compounds in 20 μL/well cell will be 5 μg/ml (final concentration of DMSO=0.25% and final compound concentration=20 μM). Vials of frozen reporter cells are thawed by warming the vial in a 37° C. water bath for 60-120 seconds with some shaking until the cells formed a suspension. The thawed cells are transferred into a cold 50 ml (or larger) tube and mixed well by gentle pipetting. The appropriate amount of cold Phenol Red Free RPMI medium-1640 (GIBCO, Cat # 11835-030) with L-glutamine is added, both with ˜5% FBS (GIBCO-BRL, Cat. # 16000-044), so that 20 μl of the final cell suspension will contain ˜5,000 cells. The cell dilution is done such that the final concentration of FBS was ˜5%. Diluted cells (20 μl) are added into each well in a 384 well plate. The plate is incubated at 37° C. under 5% CO2 for ˜20 h. Bright-Glo substrate, 2.5 μl/well is added, and the Fire Fly Luciferase is measured using VLUX (60 second exposure) immediately after the substrate was added. Test compounds are dissolved in DMSO (100%) and added to specified wells. Raw luciferase signal data obtained as relative luminescence units (RLUs) for the test compounds are normalized to the signal of the mean of the sample reporter cell plate with DMSO.
Active compounds have TCF-luciferase ratios of 2.5 fold or greater over DMSO. All compounds show a signal increase of at least 10% compared to a signal with only DMSO added.
A=MAX FOLD Induction/DMSO CONTROL
B=TCF ACTIVITY/DMSO CONTROL Fold induction @ 2.0 uM C=TCF ACTIVITY/DMSO CONTROL Fold induction @ 20.0 uM

Row | SMILES | fold induction at 2 µM | fold induction at 20 µM
1 | Cc1ccc2[nH]cc(-c3nc4c(-c5ccc6ccccc6c5)ccnc4n3C3CCNCC3)c2c1 [2-(5-methyl-1H-indol-3-yl)-7-(2-naphthyl)-3-piperidin-4-yl-3H-imidazo[4,5-b]pyridine] | 1.92 | 
2 | Cc1ccc(-c2nc3cc(-c4ccc5ccccc5c4)cnc3n2C2CCNCC2)o1 [2-(5-methyl-2-furyl)-6-(2-naphthyl)-3-piperidin-4-yl-3H-imidazo[4,5-b]pyridine] | 1.23 | 
3 | Cc1ccc(-c2nc3c(-c4ccc5ccccc5c4)ccnc3n2C2CCNCC2)o1 [2-(5-methyl-2-furyl)-7-(2-naphthyl)-3-piperidin-4-yl-3H-imidazo[4,5-b]pyridine] | 1.17 | 
4 | FC(F)(F)c1ccc(C(F)(F)F)c(-c2nc3c(-c4ccc5ccccc5c4)ccnc3n2C2CCNCC2)c1 [2-[2,5-bis(trifluoromethyl)phenyl]-7-(2-naphthyl)-3-piperidin-4-yl-3H-imidazo[4,5-b]pyridine] | 1.45 | 
5 | FC(F)(F)c1cccc(-c2nc3c(-c4ccc5ccccc5c4)ccnc3n2C2CCNCC2)c1Cl [2-[2-chloro-3-(trifluoromethyl)phenyl]-7-(2-naphthyl)-3-piperidin-4-yl-3H-imidazo[4,5-b]pyridine] | 1.21 | 
6 | Fc1ccc(-c2nc3c(-c4ccc5ccccc5c4)ccnc3n2C2CCNCC2)c(C(F)(F)F)c1 [2-[4-fluoro-2-(trifluoromethyl)phenyl]-7-(2-naphthyl)-3-piperidin-4-yl-3H-imidazo[4,5-b]pyridine] | 1.11 | 
7 | Oc1ccccc1-c1nc2c(-c3ccc4ccccc4c3)ccnc2n1C1CCNCC1 [2-[7-(2-naphthyl)-3-piperidin-4-yl-3H-imidazo[4,5-b]pyridin-2-yl]phenol] | 1.35 | 0.01
8 | c1ccc2cc(-c3ccnc4c3nc(-c3ccc5ccccc5n3)n4C3CCNCC3)ccc2c1 [2-[7-(2-naphthyl)-3-piperidin-4-yl-3H-imidazo[4,5-b]pyridin-2-yl]quinoline] | 0.01 | 1.01
9 | CCCCc1nc2cc(-c3ccc4ccccc4c3)cnc2n1C1CCNCC1 [2-butyl-6-(2-naphthyl)-3-piperidin-4-yl-3H-imidazo[4,5-b]pyridine] | 1.21 | 
10 | CCCCc1nc2c(-c3ccc4ccccc4c3)ccnc2n1C1CCNCC1 [2-butyl-7-(2-naphthyl)-3-piperidin-4-yl-3H-imidazo[4,5-b]pyridine] | 1.19 | 
11 | Clc1nc2ccccc2cc1-c1nc2c(-c3ccc4ccccc4c3)ccnc2n1C1CCNCC1 [2-chloro-3-[7-(2-naphthyl)-3-piperidin-4-yl-3H-imidazo[4,5-b]pyridin-2-yl]quinoline] | 1.6 | 
12 | c1ccc2cc(-c3cnc4c(c3)nc(C3CCCCC3)n4C3CCNCC3)ccc2c1 [2-cyclohexyl-6-(2-naphthyl)-3-piperidin-4-yl-3H-imidazo[4,5-b]pyridine] | 1.24 | 0.01
13 | c1ccc2cc(-c3ccnc4c3nc(C3CCCCC3)n4C3CCNCC3)ccc2c1 [2-cyclohexyl-7-(2-naphthyl)-3-piperidin-4-yl-3H-imidazo[4,5-b]pyridine] | 1.88 | 
14 | c1ccc2cc(-c3ccnc4c3nc(C3CCCC3)n4C3CCNCC3)ccc2c1 [2-cyclopentyl-7-(2-naphthyl)-3-piperidin-4-yl-3H-imidazo[4,5-b]pyridine] | 1.46 | 
15 | CCc1nc2cc(-c3ccc4ccccc4c3)cnc2n1C1CCNCC1 [2-ethyl-6-(2-naphthyl)-3-piperidin-4-yl-3H-imidazo[4,5-b]pyridine] | 1.27 | 0.78
16 | CCc1nc2c(-c3ccc4ccccc4c3)ccnc2n1C1CCNCC1 [2-ethyl-7-(2-naphthyl)-3-piperidin-4-yl-3H-imidazo[4,5-b]pyridine] | 1.39 | 
17 | CC(C)Cc1nc2cc(-c3ccc4ccccc4c3)cnc2n1C1CCNCC1 [2-isobutyl-6-(2-naphthyl)-3-piperidin-4-yl-3H-imidazo[4,5-b]pyridine] | 1.13 | 

Row | SMILES | fold induction at 2 µM | fold induction at 20 µM
18 | CC(C)Cc1nc2c(-c3ccc4ccccc4c3)ccnc2n1C1CCNCC1 [2-isobutyl-7-(2-naphthyl)-3-piperidin-4-yl-3H-imidazo[4,5-b]pyridine] | 1.05 | 
19 | CC(C)c1nc2cc(-c3ccc4ccccc4c3)cnc2n1C1CCNCC1 [2-isopropyl-6-(2-naphthyl)-3-piperidin-4-yl-3H-imidazo[4,5-b]pyridine] | 1.44 | 
20 | COc1cc(-c2nc3c(-c4ccc5ccccc5c4)ccnc3n2C2CCNCC2)ccc1O [2-methoxy-4-[7-(2-naphthyl)-3-piperidin-4-yl-3H-imidazo[4,5-b]pyridin-2-yl]phenol] | 1.63 | 0.01
21 | Cc1ccc(CCn2c(C)nc3c(-c4ccc5ccccc5c4)ccnc32)cc1 [2-methyl-3-[2-(4-methylphenyl)ethyl]-7-(2-naphthyl)-3H-imidazo[4,5-b]pyridine] | 0.82 | 1
22 | Cc1nc2cc(-c3ccc4ccccc4c3)cnc2n1C1CCNCC1 [2-methyl-6-(2-naphthyl)-3-piperidin-4-yl-3H-imidazo[4,5-b]pyridine] | 1.06 | 1.17
23 | Cc1nc2c(-c3ccc4ccccc4c3)ccnc2n1CC1CCNCC1 [2-methyl-7-(2-naphthyl)-3-(piperidin-4-ylmethyl)-3H-imidazo[4,5-b]pyridine] | 1.12 | 0.08
24 | Cc1nc2c(-c3ccc4ccccc4c3)ccnc2n1[C@@H]1CCNC1 [2-methyl-7-(2-naphthyl)-3-[(3R)-pyrrolidin-3-yl]-3H-imidazo[4,5-b]pyridine] | 1.44 | 0.55
25 | Cc1nc2c(-c3ccc4ccccc4c3)ccnc2n1[C@H]1CCNC1 [2-methyl-7-(2-naphthyl)-3-[(3S)-pyrrolidin-3-yl]-3H-imidazo[4,5-b]pyridine] | 1.57 | 0.4
26 | CC(=O)N1CCC(n2c(=O)n(C)c3c(-c4ccc5ccccc5c4)ccnc32)CC1 [3-(1-acetylpiperidin-4-yl)-1-methyl-7-(2-naphthyl)-1,3-dihydro-2H-imidazo[4,5-b]pyridin-2-one] | 1.09 | 0.51
27 | c1ccc(CN2CCC(n3cnc4c(-c5ccc6ccccc6c5)ccnc43)CC2)cc1 [3-(1-benzylpiperidin-4-yl)-7-(2-naphthyl)-3H-imidazo[4,5-b]pyridine] | 0.84 | 0.08
28 | O=C(N1CCOCC1)N1CCC(n2c(=O)[nH]c3c(-c4ccc5ccccc5c4)ccnc32)CC1 [3-[1-(morpholin-4-ylcarbonyl)piperidin-4-yl]-7-(2-naphthyl)-1,3-dihydro-2H-imidazo[4,5-b]pyridin-2-one] | 1.33 | 1.02
29 | O=C(N1CCOCC1)N1CCC(n2cnc3c(-c4ccc5ccccc5c4)ccnc32)CC1 [3-[1-(morpholin-4-ylcarbonyl)piperidin-4-yl]-7-(2-naphthyl)-3H-imidazo[4,5-b]pyridine] | 1.08 | 1.25
30 | Cc1ccc(CCn2cnc3c(-c4ccc5ccccc5c4)ccnc32)cc1 [3-[2-(4-methylphenyl)ethyl]-7-(2-naphthyl)-3H-imidazo[4,5-b]pyridine] | 0.76 | 0.98
31 | O=[N+]([O-])c1ccc(O)cc1-c1nc2c(-c3ccc4ccccc4c3)ccnc2n1C1CCNCC1 [3-[7-(2-naphthyl)-3-piperidin-4-yl-3H-imidazo[4,5-b]pyridin-2-yl]-4-nitrophenol] | 1.4 | 0.98
32 | Oc1cccc(-c2nc3c(-c4ccc5ccccc5c4)ccnc3n2C2CCNCC2)c1O [3-[7-(2-naphthyl)-3-piperidin-4-yl-3H-imidazo[4,5-b]pyridin-2-yl]benzene-1,2-diol] | 1.33 | 
33 | Oc1cccc(-c2nc3c(-c4ccc5ccccc5c4)ccnc3n2C2CCNCC2)c1 [3-[7-(2-naphthyl)-3-piperidin-4-yl-3H-imidazo[4,5-b]pyridin-2-yl]phenol] | 1.58 | 
34 | c1ccc2cc(-c3ccnc4c3nc(-c3cnc5ccccc5c3)n4C3CCNCC3)ccc2c1 [3-[7-(2-naphthyl)-3-piperidin-4-yl-3H-imidazo[4,5-b]pyridin-2-yl]quinoline] | 1.44 | 
